Assays:
[1] = tested on: Wnt activity (Sp5-Luc reporter, Wnt-responsive promoter) in SW480 colon carcinoma cells; experiment: Wnt activity screening assay: Sp5-Luc reporter gene assay in SW480 cells; assay type: cell-based; conditions: Homo sapiens, overnight incubation, 10-point curve starting from 10 μM
In short: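 SW480 cells stably transduced with an Sp5 promoter (eight TCF/LEF sites)–firefly luciferase lentiviral reporter, plated at 4,000 cells/well in 1% FBS medium with compounds (10-point 1:3 series from 10 μM, 0.1% DMSO) overnight at 37 °C. BrightGlo luminescence normalised to DMSO; EC50 by four-parameter fit, else % inhibition at 10 μM.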

[2] = tested on: primary human fibroblasts derived from IPF patients (LL29 cells) treated with TGF-β1; experiment: Inhibition of the fibrotic process: αSMA staining in TGF-β1-treated LL29 fibroblasts; assay type: cell-based; conditions: Fibroblast; for EC50: 96 h, LL29 fibroblasts treated with TGF-β1 (20 ng/mL), 4 days, Table 4; for inhibition at 10 µM: LL29 fibroblasts treated with TGF-β1, Table 4, read-out: percent inhibition at 10 μM (given in parentheses for EC50 >10 μM)
In short: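 IPF-derived LL29 fibroblasts in F12 with 1% FBS dosed with compound (11-point, 10 μM to 1.87 nM, 0.1% DMSO), then 20 ng/mL TGF-β1 after 1 h, and cultured 4 days at 37 °C. αSMA-positive cell fraction imaged after excluding SYTOX-positive cells, normalized to TGF-β1/DMSO wells; EC50 by non-linear regression, % inhibition at 10 μM if EC50 >10 μM.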

Cc1ccc(-c2cccc3[nH]c(-c4n[nH]c5ccc(-c6cncc(N)c6)nc45)nc23)s1 [Compound 395, 5-(3-(4-(5-Methylthiophen-2-yl)-1H-benzo[d]imidazol-2-yl)-1H-pyrazolo [4,3-b]pyridin-5-yl)pyridin-3-amine]
EC50 [1]: 78 nM
EC50 [2]: 186 nM

Cc1ccc(-c2cccc3[nH]c(-c4n[nH]c5ccc(-c6cncc(NC(=O)C(C)C)c6)nc45)nc23)s1 [Compound 401, N-(5-(3-(4-(5-Methylthiophen-2-yl)-1H-benzo[d]imidazol-2-yl)-1H-pyrazolo [4,3-b]pyridin-5-yl)pyridin-3-yl)isobutyramide]
EC50 [1]: 3130 nM
EC50 [2]: 673 nM

CCNCc1cncc(-c2ccc3[nH]nc(-c4nc5c(-c6cc(F)cc(NCCN(C)C)c6)cccc5[nH]4)c3n2)c1 [Compound 454, N^1-(3-(2-(5-(5-((Ethylamino)methyl)pyridin-3-yl)-1H-pyrazolo[4,3-b]pyridin-3-yl)-1H-benzo[d]imidazol-4-yl)-5-fluorophenyl)-N^2,N^2-dimethylethane-1,2-diamine]
EC50 [1]: 3370 nM
EC50 [2]: 2400 nM

CC(C)Nc1cncc(-c2ccc3[nH]nc(-c4nc5c(-c6cc(F)cc(NCCN(C)C)c6)cccc5[nH]4)c3n2)c1 [Compound 460, N^1-(3-Fluoro-5-(2-(5-(5-(isopropylamino)pyridin-3-yl)-1H-pyrazolo[4,3-b]pyridin-3-yl)-1H-benzo[d]imidazol-4-yl)phenyl)-N^2,N^2-dimethylethane-1,2-diamine]
EC50 [1]: 1050 nM
EC50 [2]: 1440 nM

CCCCC(=O)Nc1cncc(-c2ccc3[nH]nc(-c4nc5c(-c6cc(F)cc(NCCN(C)C)c6)cccc5[nH]4)c3n2)c1 [Compound 467, N-(5-(3-(4-(3-((2-(Dimethylamino)ethyl)amino)-5-fluorophenyl)-1H-benzo [d]imidazol-2-yl)-1H-pyrazolo[4,3-b]pyridin-5-yl)pyridin-3-yl)pentanamide]
EC50 [1]: 1300 nM
EC50 [2]: 1180 nM

CN(C)CCNc1cc(F)cc(-c2cccc3[nH]c(-c4n[nH]c5ccc(-c6cncc(CNCC7CCCC7)c6)nc45)nc23)c1 [Compound 473, N^1-(3-(2-(5-(5-(((Cyclopentylmethyl)amino)methyl)pyridin-3-yl)-1H-pyrazolo[4,3-b]pyridin-3-yl)-1H-benzo[d]imidazol-4-yl)-5-fluorophenyl)-N^2,N^2-dimethylethane-1,2-diamine]
EC50 [1]: 2820 nM
EC50 [2]: 1450 nM

CN(C)CCNc1cc(F)cc(-c2cccc3[nH]c(-c4n[nH]c5ccc(-c6ccccn6)nc45)nc23)c1 [Compound 476, N^1-(3-Fluoro-5-(2-(5-(pyridin-2-yl)-1H-pyrazolo[4,3-b]pyridin-3-yl)-1H-benzo[d]imidazol-4-yl)phenyl)-N^2,N^2-dimethylethane-1,2diamine]
EC50 [1]: 1490 nM
EC50 [2]: 1080 nM

Cc1ccncc1-c1ccc2[nH]nc(-c3nc4c(-c5cc(F)cc(CNS(C)(=O)=O)c5)cccc4[nH]3)c2n1 [Compound 481, N-(3-Fluoro-5-(2-(5-(4-methylpyridin-3-yl)-1H-pyrazolo[4,3-b]pyridin-3-yl)-1H-benzo[d]imidazol-4-yl)benzyl)methanesulfonamide]
EC50 [1]: 1340 nM
EC50 [2]: 2110 nM

CCCC(=O)Nc1cncc(-c2ccc3[nH]nc(-c4nc5c(-c6cc(F)cc(CNS(C)(=O)=O)c6)cccc5[nH]4)c3n2)c1 [Compound 493, N-(5-(3-(4-(3-Fluoro-5-(methylsulfonamidomethyl)phenyl)-1H-benzo[d]imidazol-2-yl)-1H-pyrazolo[4,3-b]pyridin-5-yl)pyridin-3-yl)butyramide]
EC50 [1]: 3220 nM
EC50 [2]: 2620 nM

CS(=O)(=O)NCc1cc(F)cc(-c2cccc3[nH]c(-c4n[nH]c5ccc(-c6cncc(CNCc7ccccc7)c6)nc45)nc23)c1 [Compound 500, N-(3-(2-(5-(5-((Benzylamino)methyl)pyridin-3-yl)-1H-pyrazolo[4,3-b]pyridin-3-yl)-1H-benzo[d]imidazol-4-yl)-5-fluorobenzyl)methanesulfonamide]
EC50 [1]: 2340 nM
EC50 [2]: 2210 nM

CS(=O)(=O)NCc1cc(F)cc(-c2cccc3[nH]c(-c4n[nH]c5ccc(-c6cncnc6)nc45)nc23)c1 [Compound 503, N-(3-Fluoro-5-(2-(5-(pyrimidin-5-yl)-1H-pyrazolo[4,3-b]pyridin-3-yl)-1H-benzo[d]imidazol-4-yl)benzyl)methanesulfonamide]
EC50 [1]: 2890 nM
EC50 [2]: 5000 nM

Fc1cccc(-c2cccc3[nH]c(-c4n[nH]c5ccc(C6CCNCC6)nc45)nc23)c1 [Compound 505, 3-(4-(3-Fluorophenyl)-1H-benzo[d]imidazol-2-yl)-5-(piperidin-4-yl)-1H-pyrazolo[4,3-b]pyridine]
EC50 [1]: 3200 nM
EC50 [2]: 1700 nM

Cn1cc(-c2ccc3[nH]nc(-c4nc5c(-c6cccc(F)c6)cccc5[nH]4)c3n2)cn1 [Compound 508, 3-(4-(3-Fluorophenyl)-1H-benzo[d]imidazol-2-yl)-5-(1-methyl-1H-pyrazol-4-yl)-1H-pyrazolo[4,3-b]pyridine]
EC50 [1]: 518 nM
EC50 [2]: 1110 nM

Cc1ncc(-c2ccc3[nH]nc(-c4nc5c(-c6cccc(F)c6)cccc5[nH]4)c3n2)n1C [Compound 509, 5-(1,2-Dimethyl-1H-imidazol-5-yl)-3-(4-(3-fluorophenyl)-1H-benzo[d]imidazol-2-yl)-1H-pyrazolo[4,3-b]pyridine]
EC50 [1]: 160 nM
EC50 [2]: 175 nM

NC1CN(c2cncc(-c3ccc4[nH]nc(-c5nc6c(-c7cccc(F)c7)cccc6[nH]5)c4n3)n2)C1 [Compound 510, 1-(6-(3-(4-(3-Fluorophenyl)-1H-benzo[d]imidazol-2-yl)-1H-pyrazolo[4,3-b]pyridin-5-yl)pyrazin-2-yl)azetidin-3-amine]
EC50 [1]: 3240 nM
EC50 [2]: 4320 nM

Fc1cccc(-c2cccc3[nH]c(-c4n[nH]c5ccc(-c6cncc(OC7CCNCC7)c6)nc45)nc23)c1 [Compound 512, 3-(4-(3-Fluorophenyl)-1H-benzo[d]imidazol-2-yl)-5-(5-(piperidin-4-yloxy)pyridin-3-yl)-1H-pyrazolo[4,3-b]pyridine]
EC50 [1]: 2140 nM
EC50 [2]: 1540 nM

Fc1cccc(-c2cccc3[nH]c(-c4n[nH]c5ccc(-c6cncc(OCCN7CCCC7)c6)nc45)nc23)c1 [Compound 514, 3-(4-(3-Fluorophenyl)-1H-benzo[d]imidazol-2-yl)-5-(5-(2-(pyrrolidin-1-yl)ethoxy)pyridin-3-yl)-1H-pyrazolo[4,3-b]pyridine]
EC50 [1]: 1170 nM
EC50 [2]: 1060 nM

CN(C)CCOc1cncc(-c2ccc3[nH]nc(-c4nc5c(-c6cccc(F)c6)cccc5[nH]4)c3n2)c1 [Compound 515, 2-((5-(3-(4-(3-Fluorophenyl)-1H-benzo[d]imidazol-2-yl)-1H-pyrazolo[4,3-b]pyridin-5-yl)pyridin-3-yl)oxy)-N,N-dimethylethan-1-amine]
EC50 [1]: 4670 nM
EC50 [2]: 2540 nM

COc1cncc(-c2ccc3[nH]nc(-c4nc5c(-c6cccc(F)c6)cccc5[nH]4)c3n2)c1 [Compound 516, 3-(4-(3-Fluorophenyl)-1H-benzo[d]imidazol-2-yl)-5-(5-methoxypyridin-3-yl)-1H-pyrazolo[4,3-b]pyridine]
EC50 [1]: 923 nM
inhibition at 10 µM [2]: 0%
EC50 [2]: > 10000 nM

Oc1cncc(-c2ccc3[nH]nc(-c4nc5c(-c6cccc(F)c6)cccc5[nH]4)c3n2)c1 [Compound 517, 5-(3-(4-(3-Fluorophenyl)-1H-benzo[d]imidazol-2-yl)-1H-pyrazolo[4,3-b]pyridin-5-yl)pyridin-3-ol]
EC50 [1]: 6550 nM
EC50 [2]: 1540 nM

c1cncc(-c2cccc3[nH]c(-c4n[nH]c5ccc(-c6cncc(OC7CCCCC7)c6)nc45)nc23)c1 [Compound 559, 5-(5-(Cyclohexyloxy)pyridin-3-yl)-3-(4-(pyridin-3-yl)-1H-benzo[d]imidazol-2-yl)-1H-pyrazolo[4,3-b]pyridine]
EC50 [1]: 3140 nM
EC50 [2]: 2620 nM

Oc1cncc(-c2ccc3[nH]nc(-c4nc5c(-c6cccnc6)cccc5[nH]4)c3n2)c1 [Compound 565, 5-(3-(4-(Pyridin-3-yl)-1H-benzo[d]imidazol-2-yl)-1H-pyrazolo[4,3-b]pyridin-5-yl)pyridin-3-ol]
EC50 [1]: 1450 nM
EC50 [2]: 1730 nM

c1cc(N2CCCCC2)c2nc(-c3n[nH]c4ccc(-c5cncc(OCCN6CCCC6)c5)nc34)[nH]c2c1 [Compound 610, 3-(4-(Piperidin-1-yl)-1H-benzo[d]imidazol-2-yl)-5-(5-(2-(pyrrolidin-1-yl)ethoxy)pyridin-3-yl)-1H-pyrazolo[4,3-b]pyridine]
EC50 [1]: 3050 nM
EC50 [2]: 1970 nM

COc1cncc(-c2ccc3[nH]nc(-c4nc5c(N6CCCCC6)cccc5[nH]4)c3n2)c1 [Compound 612, 5-(5-Methoxypyridin-3-yl)-3-(4-(piperidin-1-yl)-1H-benzo[d]imidazol-2-yl)-1H-pyrazolo[4,3-b]pyridine]
EC50 [1]: 3770 nM
inhibition at 10 µM [2]: 26.9%
EC50 [2]: > 10000 nM

Oc1cncc(-c2ccc3[nH]nc(-c4nc5c(N6CCCCC6)cccc5[nH]4)c3n2)c1 [Compound 613, 5-(3-(4-(Piperidin-1-yl)-1H-benzo[d]imidazol-2-yl)-1H-pyrazolo[4,3-b]pyridin-5-yl)pyridin-3-ol]
EC50 [1]: 1550 nM
EC50 [2]: 3320 nM

CN1CCN(c2cccc3[nH]c(-c4n[nH]c5ccc(-c6cncc(OC7CCCCC7)c6)nc45)nc23)CC1 [Compound 639, 5-(5-(Cyclohexyloxy)pyridin-3-yl)-3-(4-(4-methylpiperazin-1-yl)-1H-benzo [d]imidazol-2-yl)-1H-pyrazolo[4,3-b]pyridine]
EC50 [1]: 1030 nM
EC50 [2]: 1360 nM

From patent US10392383B2, “3-(1H-benzo[d]imidazol-2-yl)-1H-pyrazolo[4,3-b]pyridines and therapeutic uses thereof” (Samumed, LLC, priority 2015, dated 2019)
